Mass density data for twelve compounds are collected here from the NIST ThermoML archive (doi:10.1016/j.jct.2017.07.026).

For series [1] the following is noted: 298.15 K, Liquid.
The nature of series [2]: mn = molality of the nth substance listed, in mol/kg. Conditions: 298.15 K, 100 kPa, Liquid, Vibrating tube method.

Each structure is given as a SMILES string. ± gives the expanded uncertainty stated by the source.

As for `CCCCCC(C)C` [2-methylheptane], in series [1] (100 kPa, Vibrating tube method), the mass density is recorded as 693.9 ± 1.4 kg/m3.
Turning to `CCCCCC(C)C` [2-methylheptane] + CO, the mass density in series [2] (m1 = 0.1174) is recorded as 784.76 ± 0.33 kg/m3; in series [2] (m1 = 0.1406), 784.42 ± 0.33 kg/m3; in series [2] (m1 = 0.2155) it was 783.3 ± 0.33 kg/m3; in series [2] (m1 = 0.3711), 781.09 ± 0.33 kg/m3; in series [2] (m1 = 0.4177) it was 780.47 ± 0.33 kg/m3; in series [2] (m1 = 0.4497), 780.04 ± 0.33 kg/m3. The mass density in series [2] (m1 = 0.5259) worked out at 779.01 ± 0.33 kg/m3; in series [2] (m1 = 0.5815) it was 778.29 ± 0.34 kg/m3; in series [2] (m1 = 0.639), 777.54 ± 0.34 kg/m3; in series [2] (m1 = 0.7339), 776.35 ± 0.34 kg/m3.
Consider `CCCC(C)C` [2-methylpentane], for which, in series [1] (100 kPa, Vibrating tube method), the mass density worked out at 648.48 ± 0.67 kg/m3.
For `CCCC(C)C` [2-methylpentane] + CO, the mass density in series [2] (m1 = 0.02577) came out at 786.15 ± 0.33 kg/m3; in series [2] (m1 = 0.09112), 785.08 ± 0.33 kg/m3; in series [2] (m1 = 0.1002), 784.95 ± 0.33 kg/m3; in series [2] (m1 = 0.1267), 784.51 ± 0.33 kg/m3; in series [2] (m1 = 0.1833), 783.59 ± 0.33 kg/m3; in series [2] (m1 = 0.2247) it was 782.95 ± 0.33 kg/m3. For the same compound, the mass density in series [2] (m1 = 0.2392) was 782.73 ± 0.33 kg/m3; in series [2] (m1 = 0.3355) it was 781.24 ± 0.33 kg/m3; in series [2] (m1 = 0.3506), 781.02 ± 0.33 kg/m3; in series [2] (m1 = 0.3833) it was 780.53 ± 0.33 kg/m3; in series [2] (m1 = 0.4498), 779.5 ± 0.33 kg/m3; in series [2] (m1 = 0.4937), 778.85 ± 0.34 kg/m3. For the same compound, the mass density was 778.68 ± 0.34 kg/m3 in series [2] (m1 = 0.5032), 777.84 ± 0.34 kg/m3 in series [2] (m1 = 0.5629) and 776.78 ± 0.34 kg/m3 in series [2] (m1 = 0.6343).
Take `CCC(C)CC` [3-methylpentane]: the mass density in series [1] (100 kPa, Vibrating tube method) is given as 659.76 ± 0.68 kg/m3.
As to `CCC(C)CC` [3-methylpentane] + CO, the mass density is 786.12 ± 0.33 kg/m3 in series [2] (m1 = 0.02902); 785.97 ± 0.33 kg/m3 in series [2] (m1 = 0.04025); 785.65 ± 0.33 kg/m3 in series [2] (m1 = 0.06079); 785.37 ± 0.33 kg/m3 in series [2] (m1 = 0.07925); 784.93 ± 0.33 kg/m3 in series [2] (m1 = 0.1106); 783.51 ± 0.33 kg/m3 in series [2] (m1 = 0.2045). Further, the mass density in series [2] (m1 = 0.307) is given as 782.05 ± 0.33 kg/m3; in series [2] (m1 = 0.3825), 781.03 ± 0.33 kg/m3; in series [2] (m1 = 0.3944) it was 780.81 ± 0.34 kg/m3; in series [2] (m1 = 0.4638), 779.87 ± 0.33 kg/m3; in series [2] (m1 = 0.5751) it was 778.42 ± 0.33 kg/m3; in series [2] (m1 = 0.6145), 777.81 ± 0.34 kg/m3. Also, the mass density in series [2] (m1 = 0.7207) was 776.46 ± 0.34 kg/m3.
As for `CCCCCCC` [heptane], the mass density in series [1] (101.33 kPa, Pycnometric method) is reported as 679.455 ± 0.22 kg/m3.
Take `CO` [methanol]: the mass density in series [1] (100 kPa, Vibrating tube method) stood at 786.57 ± 0.33 kg/m3.
With `CO` [methanol] + CCC(C)CC, in series [2] (m2 = 0), the mass density came out at 786.57 ± 0.33 kg/m3.
On the same count and under the same terms, the value for `CO` [methanol] + CCCC(C)C was 786.57 ± 0.33 kg/m3; that for `CO` [methanol] + CCCCCC(C)C was 786.57 ± 0.33 kg/m3.
With `Cc1ccccc1` [toluene], the mass density in series [1] (101.33 kPa, Pycnometric method) was found to be 862.214 ± 0.26 kg/m3.

Broadly, the mass density is the mass of a sample divided by its volume.
